Measurements published in PMC9309146 (Advances in Therapy, 2022).
Like-named read-outs stand apart in the source and are kept apart here.

Columns and labels:
[1] = MURANO popPK evaluation ref 24; cited from earlier work
Population PK = format: in vivo, human
Exposure-safety analysis = format: in vivo, human; settings: logistic regression
[2] = legacy popPK analysis ref 20; cited from earlier work

SMILES: CC1(C)CCC(CN2CCN(c3ccc(C(=O)NS(=O)(=O)c4ccc(NCC5CCOCC5)c([N+](=O)[O-])c4)c(Oc4cnc5[nH]ccc5c4)c3)CC2)=C(c2ccc(Cl)cc2)C1 [venetoclax]
- rituximab co-administration effect: decrease in CL/F [1]: 7%
- rituximab co-administration effect: increase in CL/F (Population PK; current analysis): 7%
- increase in F1 (Population PK; dose decrease from 400 to 200 mg): 11.0%
- decrease in F1 (Population PK; dose increase from 400 to 800 mg): 9.9%
- decrease in F1 (Population PK; fasting state relative to low-fat state): 66.2%
- V2/F lower (Population PK; females than males): 29.7%
- effect of obinutuzumab co-administration on CL/F and F1 (Population PK; forward addition covariate testing): no effect
- increase in F1 (Population PK; high-fat meal relative to low-fat): 44.3%
- relationship between CL/F and body weight, age, gender, mild or moderate hepatic or renal impairment, CrCL, bilirubin, ALT, AST, albumin, P-glycoprotein or weak CYP3A inhibitors (Population PK; human, in vivo): no relationship was observed
- increase in F1 (Population PK; meal-fed state without specification of fat content): 28.9%
- increase in F1 (Population PK; moderate-fat meal relative to low-fat): 40.4%
- V2/F higher (Population PK; patients compared with healthy individuals): 73.3%
- decrease in CL/F (Population PK; with OATP1B3 hepatic uptake transporter inhibitors): 13.6%
- decrease in CL/F (Population PK; with moderate CYP3A inhibitors): 13.9%
- decrease in CL/F (Population PK; with strong CYP3A inhibitors): 82.2%
- p value, association of CmeanSS,nominal with probability of SAEs (Exposure-safety analysis): 0.214
- p value, association of CmeanSS,nominal with probability of grade ≥ 3 infections (Exposure-safety analysis): 0.149
- rituximab co-administration effect: increase in CL/F [2]: 22%
